Literature values as cited in patent publication US6631329B1, “Use of the crystal structure of Staphylococcus aureus isoleucyl-tRNA synthetase in antibiotic design” (Yale University, priority 1999, dated 2003).

What was measured:
[1] = test system: Gram-negative bacterial IRS; conditions: many Gram-negative bacterial IRS
[2] = target: T1, human isoleucyl-tRNA synthetase (Homo sapiens, UniProt P41252)
T1 sequence (P41252 1-1262): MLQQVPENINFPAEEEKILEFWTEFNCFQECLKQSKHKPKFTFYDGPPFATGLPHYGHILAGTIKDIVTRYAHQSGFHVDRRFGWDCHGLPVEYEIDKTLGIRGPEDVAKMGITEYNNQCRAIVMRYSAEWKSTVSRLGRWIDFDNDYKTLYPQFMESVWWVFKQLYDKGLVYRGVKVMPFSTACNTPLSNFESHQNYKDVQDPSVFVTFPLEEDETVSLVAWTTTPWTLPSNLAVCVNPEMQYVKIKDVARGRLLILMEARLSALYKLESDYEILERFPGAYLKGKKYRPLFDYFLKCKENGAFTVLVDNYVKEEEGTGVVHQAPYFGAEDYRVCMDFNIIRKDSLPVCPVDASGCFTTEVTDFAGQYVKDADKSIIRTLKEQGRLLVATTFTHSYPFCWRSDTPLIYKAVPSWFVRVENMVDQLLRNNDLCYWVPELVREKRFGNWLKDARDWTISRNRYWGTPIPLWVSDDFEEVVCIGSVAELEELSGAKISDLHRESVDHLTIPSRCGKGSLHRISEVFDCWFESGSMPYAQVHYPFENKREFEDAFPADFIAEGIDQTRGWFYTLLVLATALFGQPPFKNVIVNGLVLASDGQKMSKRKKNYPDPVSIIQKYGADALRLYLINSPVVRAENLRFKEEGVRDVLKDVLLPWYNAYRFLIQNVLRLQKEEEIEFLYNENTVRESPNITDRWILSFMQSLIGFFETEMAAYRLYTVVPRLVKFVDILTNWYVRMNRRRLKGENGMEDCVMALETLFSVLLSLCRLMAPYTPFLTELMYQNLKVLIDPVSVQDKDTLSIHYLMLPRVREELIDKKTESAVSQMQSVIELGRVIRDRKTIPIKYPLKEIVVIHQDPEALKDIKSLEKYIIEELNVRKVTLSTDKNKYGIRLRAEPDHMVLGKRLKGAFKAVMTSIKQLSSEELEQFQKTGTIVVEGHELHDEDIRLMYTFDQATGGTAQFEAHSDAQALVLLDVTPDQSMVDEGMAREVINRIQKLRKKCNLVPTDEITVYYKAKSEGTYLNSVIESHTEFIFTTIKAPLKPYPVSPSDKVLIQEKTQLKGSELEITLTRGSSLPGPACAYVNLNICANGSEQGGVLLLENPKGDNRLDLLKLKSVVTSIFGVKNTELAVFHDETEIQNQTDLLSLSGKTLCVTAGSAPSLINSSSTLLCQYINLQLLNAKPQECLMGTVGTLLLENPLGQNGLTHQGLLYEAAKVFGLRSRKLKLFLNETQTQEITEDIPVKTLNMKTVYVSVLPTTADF

[3] = test system: Pseudomonic fluoscenes (Psefl) enzyme; conditions: SA IRS vs Pseudomonic fluoscenes enzyme
[4] = target: T2, isoleucyl-tRNA synthetase (IRS) (Staphylococcus aureus, UniProt P41972); conditions: with respect to isoleucine
T2 sequence (P41972 1-917): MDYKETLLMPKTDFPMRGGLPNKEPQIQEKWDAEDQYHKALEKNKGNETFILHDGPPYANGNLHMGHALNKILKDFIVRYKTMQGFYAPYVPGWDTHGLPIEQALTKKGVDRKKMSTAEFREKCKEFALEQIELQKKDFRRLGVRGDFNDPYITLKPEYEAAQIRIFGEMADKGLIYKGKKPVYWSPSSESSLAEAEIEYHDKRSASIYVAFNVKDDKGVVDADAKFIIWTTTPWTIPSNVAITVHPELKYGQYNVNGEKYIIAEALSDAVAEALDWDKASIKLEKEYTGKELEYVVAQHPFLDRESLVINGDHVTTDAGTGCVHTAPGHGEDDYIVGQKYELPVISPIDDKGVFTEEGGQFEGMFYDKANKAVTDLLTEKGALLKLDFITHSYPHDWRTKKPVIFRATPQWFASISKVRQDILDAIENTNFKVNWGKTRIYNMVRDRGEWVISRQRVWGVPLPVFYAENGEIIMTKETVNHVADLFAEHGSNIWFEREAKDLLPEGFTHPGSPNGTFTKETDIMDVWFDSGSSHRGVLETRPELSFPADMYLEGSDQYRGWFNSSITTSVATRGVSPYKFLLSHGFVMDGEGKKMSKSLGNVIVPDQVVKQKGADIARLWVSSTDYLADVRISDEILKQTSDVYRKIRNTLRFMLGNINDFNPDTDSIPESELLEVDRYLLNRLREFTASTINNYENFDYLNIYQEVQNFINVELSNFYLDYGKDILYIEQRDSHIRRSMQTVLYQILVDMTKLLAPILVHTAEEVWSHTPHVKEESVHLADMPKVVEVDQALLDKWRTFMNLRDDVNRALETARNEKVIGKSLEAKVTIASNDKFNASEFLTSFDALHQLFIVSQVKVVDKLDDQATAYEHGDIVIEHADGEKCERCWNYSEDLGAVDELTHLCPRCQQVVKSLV

MRSA [5] = test system: MRSA
MRSA [6] = conditions: topical use
MRSA [7] = conditions: in vivo
[8] = target: MURSA isoleucyl-tRNA synthetase (Staphylococcus aureus, UniProt P41368)
Sequence of MURSA isoleucyl-tRNA synthetase (P41368 whole entry): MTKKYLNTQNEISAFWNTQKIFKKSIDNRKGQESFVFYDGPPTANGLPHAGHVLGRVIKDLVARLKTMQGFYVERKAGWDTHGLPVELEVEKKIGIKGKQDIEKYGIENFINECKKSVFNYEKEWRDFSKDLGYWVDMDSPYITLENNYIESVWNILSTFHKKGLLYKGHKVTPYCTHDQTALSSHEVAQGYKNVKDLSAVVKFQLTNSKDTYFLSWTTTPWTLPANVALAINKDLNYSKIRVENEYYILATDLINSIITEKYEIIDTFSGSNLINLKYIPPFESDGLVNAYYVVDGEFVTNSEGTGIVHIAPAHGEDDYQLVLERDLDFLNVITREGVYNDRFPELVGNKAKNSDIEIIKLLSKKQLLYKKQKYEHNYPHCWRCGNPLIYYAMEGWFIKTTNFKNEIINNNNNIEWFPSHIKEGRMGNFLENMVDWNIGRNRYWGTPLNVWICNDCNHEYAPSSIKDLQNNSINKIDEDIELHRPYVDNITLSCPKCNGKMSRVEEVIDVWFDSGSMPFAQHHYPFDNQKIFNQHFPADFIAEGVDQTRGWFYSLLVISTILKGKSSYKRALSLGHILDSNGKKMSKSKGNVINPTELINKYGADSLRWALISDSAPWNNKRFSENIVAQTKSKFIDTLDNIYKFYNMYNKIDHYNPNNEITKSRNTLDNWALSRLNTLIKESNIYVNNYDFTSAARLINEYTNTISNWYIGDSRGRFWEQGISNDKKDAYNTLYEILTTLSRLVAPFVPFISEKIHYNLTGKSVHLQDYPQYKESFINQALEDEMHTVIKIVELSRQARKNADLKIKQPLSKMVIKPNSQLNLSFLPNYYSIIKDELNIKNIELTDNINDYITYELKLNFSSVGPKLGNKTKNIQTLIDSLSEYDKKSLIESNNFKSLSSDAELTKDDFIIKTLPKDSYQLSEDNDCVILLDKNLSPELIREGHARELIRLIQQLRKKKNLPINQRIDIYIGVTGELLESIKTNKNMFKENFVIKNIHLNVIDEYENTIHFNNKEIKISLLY

| Structure (SMILES) | concentration at which mupirocin inhibits bacterial IRS [1] | sensitivity of human isoleucyl-tRNA synthetase to the antibiotic [2] | concentration for binding the human enzyme relative to bacterial IRS ([2]; higher than for bacterial IRS) | difference in inhibition between SA IRS and Psefl enzyme [3] | mode of inhibition of IRS [4] | effectiveness against MRSA (MRSA [5]) | eradication of nasal carriage of MRSA (MRSA [6]) | eradication of MRSA in skin and virginal infections (MRSA [6]; after failure of intervenous vancomycin therapy) | effectiveness against bacteremia caused by MRSA (MRSA [7]) | sensitivity of MURSA isoleucyl-tRNA synthetase to the antibiotic [8] | half-life in vivo (metabolic conversion from pseudomonic acid to monic acid) | activity of the metabolite (in vivo) | clearance in the urine (in vivo) |
| --- | --- | --- | --- | --- | --- | --- | --- | --- | --- | --- | --- | --- | --- |
| C/C(=C\C(=O)OCCCCCCCCC(=O)O)C[C@@H]1OC[C@H](C[C@@H]2O[C@H]2[C@@H](C)[C@H](C)O)[C@@H](O)[C@H]1O [Mupirocin, mupirocin] | nM concentrations | resistant | 3 to 4 orders of magnitude | 10^6 | competitive inhibitor for isoleucine | highly effective | very successfully eradicated | eradicated | not very effective | resistant | short | – | – |
| C/C(=C\C(=O)O)C[C@@H]1OC[C@H](C[C@@H]2O[C@H]2[C@@H](C)[C@H](C)O)[C@@H](O)[C@H]1O [monic acid] | – | – | – | – | – | – | – | – | – | – | – | inactive | rapidly cleared |
